Where “and” joins values, the source holds several entries; their conditions need not be identical. Equal entries are not always repeated. Where two headings read alike, the source gives them in different places.
Assays:
[1] = tested on: human breast MDA-MB-361 tumor cell line; experiment: In vitro cell culture growth assay (MTS), MDA-MB-361; assay type: cell-based; settings: Homo sapiens
Human mTOR (FLAG-TOR) = Human mTOR (FLAG-TOR) (Homo sapiens, UniProt P42345); experiment: mTOR kinase assay (DELFIA format, purified enzyme); assay type: biochemical; settings: read-out: IC50 mTOR
PI3K-α = PI3K-α (Homo sapiens, UniProt P42336); experiment: PI3K-alpha fluorescence polarization assay
PI3K-γ = PI3K-γ (Homo sapiens, UniProt P48736); experiment: PI3K-gamma fluorescence polarization assay
[2] = tested on: human prostate PC3-mm2 tumor cell line; experiment: In vitro cell culture growth assay (MTS), PC3-mm2; assay type: cell-based; settings: Homo sapiens, PC3MM2, 72 h
[3] = MDA-MB-361, 72 h, MTS cell growth assay, three days after drug treatment, read-out: IC50 MDA-MB-361
[4] = MTS cell growth assay, three days after drug treatment, read-out: IC50 PC3-mm2
[5] = PC3-mm2 cells, MTS, three days after drug treatment, read-out: IC50 PC3-mm2
[6] = 72 h, MTS cell growth assay, three days after drug treatment, MDA-MB-361 cells, read-out: IC50 MDA-MB-361
[7] = MTS cell growth assay, three days after drug treatment, PC3-mm2 cells, read-out: IC50 PC3-mm2
[8] = MDA-MB-361, 72 h, MTS cell growth assay, three days after drug treatment, MDA-MB-361 cells, read-out: IC50 MDA-MB-361

PI3K-α, sequence (P42336 whole entry, species assumed): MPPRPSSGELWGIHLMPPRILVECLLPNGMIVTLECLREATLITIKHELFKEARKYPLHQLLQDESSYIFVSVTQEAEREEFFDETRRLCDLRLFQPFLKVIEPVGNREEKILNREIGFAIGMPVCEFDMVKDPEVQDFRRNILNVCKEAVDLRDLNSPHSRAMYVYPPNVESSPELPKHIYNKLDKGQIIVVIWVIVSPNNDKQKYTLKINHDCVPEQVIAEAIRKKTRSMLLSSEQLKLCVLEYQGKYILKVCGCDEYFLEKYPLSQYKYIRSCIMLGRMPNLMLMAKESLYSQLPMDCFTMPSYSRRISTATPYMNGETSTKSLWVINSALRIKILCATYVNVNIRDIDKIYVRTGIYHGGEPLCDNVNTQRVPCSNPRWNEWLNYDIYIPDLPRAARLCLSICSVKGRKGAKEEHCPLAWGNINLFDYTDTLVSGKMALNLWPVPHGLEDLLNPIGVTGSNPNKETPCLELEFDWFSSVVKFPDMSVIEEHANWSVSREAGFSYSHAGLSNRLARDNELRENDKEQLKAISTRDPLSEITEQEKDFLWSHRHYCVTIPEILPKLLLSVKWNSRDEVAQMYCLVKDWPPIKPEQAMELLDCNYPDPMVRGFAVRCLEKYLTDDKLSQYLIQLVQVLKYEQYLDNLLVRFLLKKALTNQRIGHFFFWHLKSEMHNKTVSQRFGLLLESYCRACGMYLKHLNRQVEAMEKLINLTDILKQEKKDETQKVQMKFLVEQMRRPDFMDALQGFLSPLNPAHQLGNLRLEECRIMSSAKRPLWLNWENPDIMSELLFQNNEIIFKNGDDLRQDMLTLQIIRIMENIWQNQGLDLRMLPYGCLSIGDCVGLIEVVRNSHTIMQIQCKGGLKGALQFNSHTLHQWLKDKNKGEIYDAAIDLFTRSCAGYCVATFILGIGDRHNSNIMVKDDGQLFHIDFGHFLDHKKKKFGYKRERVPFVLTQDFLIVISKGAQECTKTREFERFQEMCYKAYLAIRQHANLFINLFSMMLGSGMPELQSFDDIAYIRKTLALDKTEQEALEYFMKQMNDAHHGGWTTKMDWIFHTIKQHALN
PI3K-α, sequence (P27986 whole entry partner, species assumed): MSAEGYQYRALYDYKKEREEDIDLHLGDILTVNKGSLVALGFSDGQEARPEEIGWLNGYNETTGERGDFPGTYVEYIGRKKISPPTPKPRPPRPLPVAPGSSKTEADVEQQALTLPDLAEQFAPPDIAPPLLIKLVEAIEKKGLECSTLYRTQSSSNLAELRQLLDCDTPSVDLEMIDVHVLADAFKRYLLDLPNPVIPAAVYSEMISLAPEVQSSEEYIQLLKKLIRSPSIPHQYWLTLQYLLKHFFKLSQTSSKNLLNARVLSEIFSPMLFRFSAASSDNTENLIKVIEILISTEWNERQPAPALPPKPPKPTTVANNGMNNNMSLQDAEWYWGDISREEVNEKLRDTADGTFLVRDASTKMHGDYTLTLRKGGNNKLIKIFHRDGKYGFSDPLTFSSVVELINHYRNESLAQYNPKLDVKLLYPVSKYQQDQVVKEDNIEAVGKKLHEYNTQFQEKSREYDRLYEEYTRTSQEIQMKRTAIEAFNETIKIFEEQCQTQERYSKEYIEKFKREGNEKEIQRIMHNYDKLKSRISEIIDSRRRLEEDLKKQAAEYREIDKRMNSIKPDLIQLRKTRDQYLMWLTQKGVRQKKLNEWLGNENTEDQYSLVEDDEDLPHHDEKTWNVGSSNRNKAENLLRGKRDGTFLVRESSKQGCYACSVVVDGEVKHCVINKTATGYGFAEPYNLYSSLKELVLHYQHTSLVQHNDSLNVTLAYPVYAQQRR
Human mTOR (FLAG-TOR), sequence (P42345 1360-2549 limits assumed): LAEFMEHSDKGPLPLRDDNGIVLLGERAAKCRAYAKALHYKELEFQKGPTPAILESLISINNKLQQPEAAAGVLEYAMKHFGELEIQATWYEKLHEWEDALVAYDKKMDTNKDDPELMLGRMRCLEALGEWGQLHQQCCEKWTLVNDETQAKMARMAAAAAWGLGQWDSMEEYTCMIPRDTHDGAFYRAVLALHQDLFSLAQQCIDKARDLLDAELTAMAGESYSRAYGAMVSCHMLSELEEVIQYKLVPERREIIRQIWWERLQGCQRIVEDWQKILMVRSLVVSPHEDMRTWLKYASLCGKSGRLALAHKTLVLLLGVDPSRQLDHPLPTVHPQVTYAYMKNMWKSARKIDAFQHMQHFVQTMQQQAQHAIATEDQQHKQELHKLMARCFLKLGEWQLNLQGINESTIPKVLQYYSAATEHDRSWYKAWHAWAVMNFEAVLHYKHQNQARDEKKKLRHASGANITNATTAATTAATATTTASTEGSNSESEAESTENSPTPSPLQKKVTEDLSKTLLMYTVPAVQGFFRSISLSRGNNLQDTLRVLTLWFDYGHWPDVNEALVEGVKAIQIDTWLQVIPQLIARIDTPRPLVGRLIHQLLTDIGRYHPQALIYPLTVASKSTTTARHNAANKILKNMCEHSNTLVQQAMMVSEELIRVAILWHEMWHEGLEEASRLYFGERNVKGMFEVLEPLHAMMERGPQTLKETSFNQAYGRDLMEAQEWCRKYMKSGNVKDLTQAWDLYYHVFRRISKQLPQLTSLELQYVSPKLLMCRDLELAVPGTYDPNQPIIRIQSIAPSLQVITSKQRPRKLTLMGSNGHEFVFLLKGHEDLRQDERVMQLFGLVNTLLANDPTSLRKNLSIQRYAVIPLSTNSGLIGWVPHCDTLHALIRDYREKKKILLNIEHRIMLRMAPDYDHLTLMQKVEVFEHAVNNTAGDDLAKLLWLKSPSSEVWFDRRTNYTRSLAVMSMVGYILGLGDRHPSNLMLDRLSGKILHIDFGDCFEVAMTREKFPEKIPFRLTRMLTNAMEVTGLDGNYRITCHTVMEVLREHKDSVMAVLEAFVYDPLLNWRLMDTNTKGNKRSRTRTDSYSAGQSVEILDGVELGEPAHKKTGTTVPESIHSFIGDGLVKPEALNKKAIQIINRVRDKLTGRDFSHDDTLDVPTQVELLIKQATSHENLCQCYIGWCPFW
PI3K-γ, sequence (P48736 whole entry, species assumed): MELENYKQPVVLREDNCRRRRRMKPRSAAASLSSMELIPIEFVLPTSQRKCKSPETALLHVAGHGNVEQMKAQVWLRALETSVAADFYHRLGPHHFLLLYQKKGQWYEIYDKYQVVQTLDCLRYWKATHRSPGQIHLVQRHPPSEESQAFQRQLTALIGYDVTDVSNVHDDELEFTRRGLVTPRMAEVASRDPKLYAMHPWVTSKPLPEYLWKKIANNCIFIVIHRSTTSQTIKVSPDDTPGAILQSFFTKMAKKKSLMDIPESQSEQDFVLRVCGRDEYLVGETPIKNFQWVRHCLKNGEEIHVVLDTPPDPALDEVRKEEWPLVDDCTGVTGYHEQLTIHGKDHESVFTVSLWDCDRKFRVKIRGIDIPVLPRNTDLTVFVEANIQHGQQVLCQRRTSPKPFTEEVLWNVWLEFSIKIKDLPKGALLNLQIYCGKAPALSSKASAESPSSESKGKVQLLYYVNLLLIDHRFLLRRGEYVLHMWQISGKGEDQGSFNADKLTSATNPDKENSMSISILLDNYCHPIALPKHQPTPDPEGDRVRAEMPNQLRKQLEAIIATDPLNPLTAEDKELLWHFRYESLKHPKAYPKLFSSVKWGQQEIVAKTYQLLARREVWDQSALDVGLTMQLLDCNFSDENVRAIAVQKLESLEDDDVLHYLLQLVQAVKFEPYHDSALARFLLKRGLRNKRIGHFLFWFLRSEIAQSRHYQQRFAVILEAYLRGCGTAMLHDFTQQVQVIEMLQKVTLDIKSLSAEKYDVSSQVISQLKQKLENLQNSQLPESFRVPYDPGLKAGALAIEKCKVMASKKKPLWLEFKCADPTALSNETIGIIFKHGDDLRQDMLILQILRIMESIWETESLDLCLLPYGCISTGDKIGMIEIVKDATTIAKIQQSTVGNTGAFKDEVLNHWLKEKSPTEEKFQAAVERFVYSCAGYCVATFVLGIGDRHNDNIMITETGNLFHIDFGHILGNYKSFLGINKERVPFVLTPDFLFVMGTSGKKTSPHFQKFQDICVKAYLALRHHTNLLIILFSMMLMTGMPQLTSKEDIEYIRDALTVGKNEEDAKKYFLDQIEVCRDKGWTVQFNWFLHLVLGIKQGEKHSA

Row | IC50 (Human mTOR (FLAG-TOR)) | IC50 (PI3K-α; read-out: IC50 PI3Kα) [nM] | IC50 (PI3K-γ; read-out: IC50 PI3Kγ) [nM] | IC50 [1, 3] [nM] | IC50 [2, 4] [nM] | Compound | IC50 [2, 7] [nM] | IC50 [1, 8] [nM] | also measured
1 | 1.45 nM | 6 | 48 | – | – | O=C(Nc1ccc(C(=O)O)cc1)Nc1ccc(-c2nc(N3CCOCC3)nc(N3CCOCC3)n2)cc1 [Example 67, 4-[3-{4-(4,6-dimorpholino-1,3,5-triazin-2-yl)phenyl}ureido]benzoic acid] | – | – | IC50 ([1]; MDA-MB-361, 72 h, read-out: IC50 MDA-MB-361, MTS cell growth assay, three days after drug treatment): 816 nM; IC50 ([2]; read-out: IC50 PC3-mm2, MTS cell growth assay, three days after drug treatment): 28 nM
2 | 18 nM | 9 | 26 | 69 | 154 | CCCc1nc(-c2ccc(NC(=O)Nc3ccc(N4CCN(C)CC4)cc3)cc2)nc(N2CCOCC2)n1 [Example 294, 1-[4-(4-methylpiperazin-1-yl)phenyl]-3-[4-(4-morpholin-4-yl-6-propyl-1,3,5-triazin-2-yl)phenyl]urea] | – | – | –
3 | 1.05 nM | 0.8 | 10 | – | – | O=C(Nc1ccc(C(=O)N2CCNCC2)cc1)Nc1ccc(-c2nc(N3CCOCC3)nc(N3CC4CCC3CO4)n2)cc1 (stereo not shown) [Example 814, 1-{4-[4-morpholin-4-yl-6-(2-oxa-5-azabicyclo[2.2.2]oct-5-yl)-1,3,5-triazin-2-yl]phenyl}-3-[4-(piperazin-1-ylcarbonyl)phenyl]urea] | – | – | IC50 ([1]; MDA-MB-361, 72 h, MDA-MB-361 cells, MTS, three days after drug treatment, read-out: IC50 MDA-MB-361): 4 nM; IC50 [2, 5]: 37 nM
4 | 6.1 nM | 17 | 41 | – | – | O=C(Nc1ccc(C(=O)O)cc1)Nc1ccc(-c2nc(-c3cccs3)nc(N3CCOCC3)n2)cc1 [Example 558, 4-[({4-[4-morpholin-4-yl-6-(2-thienyl)-1,3,5-triazin-2-yl]phenyl}carbamoyl)amino]benzoic acid] | 939 | – | IC50 [1, 6]: 751 nM
5 | 30.5 nM | 14 | 112 | 3710 | > 10000 | O=C(Nc1ccncc1)Nc1ccc(-c2nc(NCC3CNC3)nc(N3CCOCC3)n2)cc1 [Example 105, 1-(4-{4-[(azetidin-3-ylmethyl)-amino]-6-morpholin-4-yl-[1,3,5]triazin-2-yl}-phenyl)-3-pyridin-4-yl-urea] | – | – | –
6 | 9 nM | 24 | 99 | 174 | 278 | CC(=O)c1nc(-c2ccc(NC(=O)Nc3ccncc3)cc2)nc(N2CCOCC2)n1 [Example 209, 1-[4-(4-acetyl-6-morpholin-4-yl-1,3,5-triazin-2-yl)phenyl]-3-pyridin-4-ylurea] | – | – | –
7 | 3 nM | – | – | – | – | C[C@H]1COCCN1c1nc(-c2ccc(NC(=O)Nc3ccncc3)cc2)nc(N2CCOC[C@@H]2C)n1 [Example 609, 1-(4-{4,6-bis[(3S)-3-methylmorpholin-4-yl]-1,3,5-triazin-2-yl}phenyl)-3-pyridin-4-ylurea] | 26 | 24 | IC50 (PI3K-α): 11.5 nM; IC50 (PI3K-γ): 93.5 nM
8 | 89 nM | 30.5 | 129 | – | – | CN(C)C1CCN(C(=O)c2ccc(NC(=O)Nc3ccc(-c4nc(NS(=O)(=O)c5ccccc5)nc(N5CCOCC5)n4)cc3)cc2)CC1 [Example 786, N-[4-(4-{[(4-{[4-(dimethylamino)piperidin-1-yl]carbonyl}phenyl)carbamoyl]amino}phenyl)-6-morpholin-4-yl-1,3,5-triazin-2-yl]benzenesulfonamide] | > 1000 | > 1000 | –
9 | 1 nM | 2.5 | 27 | – | – | C[C@H]1COCCN1c1nc(-c2ccc(NC(=O)Nc3ccc(C(=O)N4CCN(C)CC4)cc3)cc2)nc(N2CCOCC2)n1 [Example 617, 1-(4-{4-[(3S)-3-methylmorpholin-4-yl]-6-morpholin-4-yl-1,3,5-triazin-2-yl}phenyl)-3-{4-[(4-methylpiperazin-1-yl)carbonyl]phenyl}urea] | 17 | 4 | –
10 | 36 nM | 9 | 71 | 2660 | 7100 | O=C(Nc1ccc(-c2nc(NC3CNC3)nc(N3CCOCC3)n2)cc1)Nc1cccnc1 [Example 18, 1-{4-[4-(azetidin-3-ylamino)-6-morpholin-4-yl-1,3,5-triazin-2-yl]phenyl}-3-pyridin-3-ylurea] | – | – | –
11 | 1 nM | 12.5 | 104 | – | – | C[C@@H]1COCCN1c1nc(-c2ccc(NC(=O)Nc3ccc(C(=O)N4CCN(C)CC4)cc3)cc2)nc(N2CCOC[C@@H]2C)n1 [Example 623, 1-(4-{4-[(3R)-3-methylmorpholin-4-yl]-6-[(3S)-3-methylmorpholin-4-yl]-1,3,5-triazin-2-yl}phenyl)-3-{4-[(4-methylpiperazin-1-yl)carbonyl]phenyl}urea] | 32 | – | IC50 [1, 6]: 6 nM
12 | 21 nM | 2 | 24 | 38 | 165 | CCc1nc(-c2ccc(NC(=O)Nc3ccc(C(=O)N4CCNC(C)(C)C4)cc3)cc2)nc(N2CCOCC2)n1 [Example 298, 1-{4-[(3,3-dimethylpiperazin-1-yl)carbonyl]phenyl}-3-[4-(4-ethyl-6-morpholin-4-yl-1,3,5-triazin-2-yl)phenyl]urea] | – | – | –
13 | 0.68 nM | 2 | 24 | 27 | 34 | O=C(Nc1ccc(CO)cc1)Nc1ccc(-c2nc(OC3CCOCC3)nc(N3CCOCC3)n2)cc1 [Example 62, 1-[4-(hydroxymethyl)phenyl]-3-{4-[4-morpholin-4-yl-6-(tetrahydro-2H-pyran-4-yloxy)-1,3,5-triazin-2-yl]phenyl}urea] | – | – | –

Row | Compound | IC50 (Human mTOR (FLAG-TOR)) | IC50 (PI3K-α; read-out: IC50 PI3Kα) [nM] | IC50 (PI3K-γ; read-out: IC50 PI3Kγ) [nM] | IC50 [1, 3] [nM] | IC50 [2, 4] [nM] | IC50 [2, 7] [nM] | IC50 [1, 8] [nM] | also measured
14 | O=C(Nc1ccc(C(=O)NCCN2CCCCC2)cc1)Nc1ccc(-c2nc(N3CCOCC3)nc(N3C4CCCC3COC4)n2)cc1 [Example 799, 4-[({4-[4-morpholin-4-yl-6-(3-oxa-9-azabicyclo[3.3.1]non-9-yl)-1,3,5-triazin-2-yl]phenyl}carbamoyl)amino]-N-(2-piperidin-1-ylethyl)benzamide] | 0.5 nM | 5 | 71.5 | – | – | – | – | IC50 ([1]; 72 h, MDA-MB-361 cells, MTS, three days after drug treatment, read-out: IC50 MDA-MB-361): < 3.2 nM; IC50 [2, 5]: 24 nM
15 | CN(C)CCCNC(=O)c1ccc(NC(=O)Nc2ccc(-c3nc(N4CCOCC4)nc(N4C5CCC4COC5)n3)cc2)cc1 [Example 700, N-[3-(dimethylamino)propyl]-4-[({4-[4-morpholin-4-yl-6-(3-oxa-8-azabicyclo[3.2.1]oct-8-yl)-1,3,5-triazin-2-yl]phenyl}carbamoyl)amino]benzamide] | 0.53 nM | 2.5 | 41.5 | – | – | 20 | – | IC50 [1, 6]: 5 nM
16 | CC(C)N1CCN(C(=O)c2ccc(NC(=O)Nc3ccc(-c4nc(N5CCOCC5)nc(N5C6CCC5COC6)n4)cc3)cc2)CC1 [Example 754, 1-{4-[(4-isopropylpiperazin-1-yl)carbonyl]phenyl}-3-{4-[4-morpholin-4-yl-6-(3-oxa-8-azabicyclo[3.2.1]oct-8-yl)-1,3,5-triazin-2-yl]phenyl}urea] | 0.327 nM | 3 | 28 | – | – | 70.8 | 31.3 | –
17 | O=C(Nc1ccc(-c2nc(N3CCOCC3)nc(N3C4CCC3COC4)n2)cc1)Nc1cccnc1 [Example 36, 1-{4-[4-morpholin-4-yl-6-(3-oxa-8-azabicyclo[3.2.1]oct-8-yl)-1,3,5-triazin-2-yl]phenyl}-3-pyridin-3-ylurea] | 0.51 nM and 0.505 nM | 17 | 150 | 73 | 98 | 98 | 73 | IC50 (PI3K-α; read-out: IC50 PI3Kα, listed as 671): 17.5 nM; IC50 (PI3K-γ; read-out: IC50 PI3Kγ, listed as 671): 150 nM
18 | O=C(Nc1ccc(C(=O)NCCN2CCCCC2)cc1)Nc1ccc(-c2nc(N3CCOCC3)nc(N3C4CCC3COC4)n2)cc1 [Example 759, 4-[({4-[4-morpholin-4-yl-6-(3-oxa-8-azabicyclo[3.2.1]oct-8-yl)-1,3,5-triazin-2-yl]phenyl}carbamoyl)amino]-N-(2-piperidin-1-ylethyl)benzamide] | 0.16 nM | 2 | 38 | – | – | 10 | – | IC50 [1, 6]: 1 nM
19 | CN(C)C1CCN(C(=O)c2ccc(NC(=O)Nc3ccc(-c4nc(N5CCOCC5)nc(N5C6COCC5COC6)n4)cc3)cc2)CC1 [Example 767, 1-(4-{[4-(dimethylamino)piperidin-1-yl]carbonyl}phenyl)-3-{4-[4-(3,7-dioxa-9-azabicyclo[3.3.1]non-9-yl)-6-morpholin-4-yl-1,3,5-triazin-2-yl]phenyl}urea] | 0.2 nM | 2.1 | 17 | – | – | 13 | 5 | –
20 | N#Cc1ccc(NC(=O)Nc2ccc(-c3nc(N4CCOCC4)nc(N4C5CCC4COC5)n3)cc2)cc1 [Example 42, 1-(4-cyanophenyl)-3-{4-[4-morpholin-4-yl-6-(3-oxa-8-azabicyclo[3.2.1]oct-8-yl)-1,3,5-triazin-2-yl]phenyl}urea] | 3.35 nM | 86 | 290 | 345 | 3600 | 3600 | – | IC50 (PI3K-α; read-out: IC50 PI3Kα, listed as 677): 86.5 nM

Reference: patent publication US20090304692A1, “TRIAZINE COMPOUNDS AS PI3 KINASE AND MTOR INHIBITORS” (Wyeth, priority 2008, published 2009)
